Target: T1, human renal renin (Homo sapiens, UniProt P00797)
T1 construct: human renal renin, free from acid proteolytic activity; from tissue; host or cells: human kidney (from the word 'renal')
T1 sequence (P00797 67-406): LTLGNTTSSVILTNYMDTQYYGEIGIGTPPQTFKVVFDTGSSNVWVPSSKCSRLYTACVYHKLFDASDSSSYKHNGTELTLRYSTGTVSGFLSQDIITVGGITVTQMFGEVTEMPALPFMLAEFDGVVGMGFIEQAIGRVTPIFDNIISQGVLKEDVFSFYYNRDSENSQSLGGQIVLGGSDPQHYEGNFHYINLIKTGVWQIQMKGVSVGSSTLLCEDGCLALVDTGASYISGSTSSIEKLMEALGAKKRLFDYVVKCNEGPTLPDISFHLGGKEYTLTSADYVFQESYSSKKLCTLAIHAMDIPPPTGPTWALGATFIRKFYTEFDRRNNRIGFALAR
Assay: In vitro inhibition of human renal renin (angiotensin I formed, measured by radioimmunoassay)
Type: biochemical
Conditions: human renin substrate (angiotensinogen), 37° C., pH 6.0
Procedure: At the end of the incubation, the amount of angiotensin I formed is measured by radioimmunoassay and the present inhibition of renin is calculated.

Inhibition (at 10^-8 M compound) [%] | Inhibition (at 10^-5 M compound) [%] | SMILES
47 | – | CC(C)CCC(O)C(CC1CCCCC1)NC(=O)C(Cc1cnc[nH]1)NC(=O)C(Cc1ccccc1)NC(=O)OC(C)(C)C (stereo not drawn) [Example 6C, Boc-Phe-His Amide of 2-Amino-1-cyclohexyl-3-hydroxy-6-methylheptane]
– | 85 | CC(C)CCC(O)C(CC(C)C)NC(=O)C(C)NC(=O)C(Cc1ccccc1)NC(=O)OC(C)(C)C (stereo not drawn) [Example 2C, Boc-Phe-Ala amide of 4-amino-2,8-dimethyl-5-hydroxynonane]
– | 89 | CC(C)CCC(O)C(CC(C)C)NC(=O)C(Cc1cnc[nH]1)NC(=O)C(Cc1ccccc1)NC(=O)OC(C)(C)C (stereo not drawn) [Example 3, Boc-Phe-His amide of 4-amino-2,8-dimethyl-5-hydroxynonane]
– | 35 | CC(C)CC(NC(=O)C(C)NC(=O)C(Cc1ccccc1)NC(=O)OC(C)(C)C)C(O)CCc1ccccc1 (stereo not drawn) [Example 1C, Boc-Phe-Ala amide of 4-amino-3-hydroxy-6-methyl-1-phenylheptane]

SMILES | Inhibition (at 10^-8 M compound) [%] | Inhibition (at 10^-5 M compound) [%]
C=CCC(O)C(CC(C)C)NC(=O)C(C)NC(=O)C(Cc1ccccc1)NC(=O)OC(C)(C)C (stereo not drawn) [Example 4C, Boc-Phe-Ala amide of 5-amino-4-hydroxy-7-methyl-1-octene] | – | 48
C=CC(C)(C)C(O)C(CC(C)C)NC(=O)C(C)NC(=O)C(Cc1ccccc1)NC(=O)OC(C)(C)C (stereo not drawn) [Example 5C, Boc-Phe-Ala amide of 5-amino-4-hyroxy-3,3,7-trimethyl-1-octene] | – | 7

From patent US4652551A, “Renin inhibiting compounds” (Abbott Laboratories, priority 1985, dated 1987)
